Test results as given in patent US5677459A, “Methods for the preparation of modulators of acetylcholine receptors” (Sibia Neurosciences, Inc., priority 1995, dated 1997).
Read-outs that look alike come from different tables or passages of the source.

Assays:
rats = experiment: Locomotor activity assay; type: in vivo, rat (male Sprague-Dawley); conditions: Rattus norvegicus, sc, s.c.; for change in vivo at 1 mg/kg: 1 mg/kg salt
Protocol: This assay can be used to assess the primary effect of a compound on general motor activity. A decrease in locomotor activity is indicative of a possible sedative effect on the animal, whereas an increase in locomotor activity is indicative of a stimulant effect on the animal.
Locomotor activity of rats (male Sprague-Dawley (Harlan) weighing 200-250 gm) was measured for 2 hrs in photocell cages immediately after administration of the invention compound. Prior to the test day, the animals were placed in the activity cages for 3 hrs to familiarize them with the experimental environment. On the test day, the animals were placed in the photocell cages and then injected with compound 1.5 hrs later.
The photocell cages were standard rodent cages (30 cm×20 cm×40 cm) with four infrared beams crossing the long axis. The animals were under no motivational constraints and were free to move around. Movements from one infrared beam to another (ambulation) were called "crossover"; successive interruptions of the same beam (vertical and other movements such as grooming) were called "general activity."

[1] = test system: rats with unilateral 6-hydroxydopamine lesions of the nigrostriatal dopamine pathway; type: in vivo, rat (male Sprague-Dawley)
Protocol: Selective lesions of the brain dopamine pathway using the neurotoxin 6-hydroxydopamine (6-OHDA) in rats can be used as an experimental approach to Parkinson's disease. Unilateral lesions of the nigrostriatal dopamine pathway induce a postural asymmetry which becomes manifested as rotation when the animals are activated by dopamine releasers or dopamine agonists. When amphetamine and other stimulant drugs that induce pre-synaptic release of dopamine from intact nerve terminals are administered, the rats rotate in a direction ipsilateral to the lesion. In contrast, when the rats are injected with post-synaptic dopamine receptor agonists, such as apomorphine, they turn in a contralateral direction, due to the development of supersensitive dopamine receptors in the lesioned side. Thus, the 6-OHDA model can be used to determine if a suspected dopaminergic agent is active, and to differentiate whether such action is pre- or post-synaptic.
The effects of invention compounds on rotational behavior in 6-hydroxydopamine denervated rats were evaluated using the procedure of Ungerstedt and Arbutknott, Brain Res. 24:485-493 (1970). Male Sprague-Dawley rats (Zivic Miller) weighing 170-200 gm were used in the 6-OHDA procedure. The ascending nigrostriatal dopamine pathway was lesioned by unilateral stereotaxic injection of 6-OHDA (8.0 μg) into one substantia nigra. All injections of 6-OHDA were preceded by desmethylimipramine (25 mg/kg i.p.) and pargyline (75 mg/kg i.p.) approximately 30 minutes prior to undergoing stereotaxic surgery for 6-OHDA infusion into the substantia nigra. After one week of recovery from surgery, the effectiveness of the lesions was verified by noting the response of the animals to apomorphine (0.2 mg/kg, s.c.). Only rats with a minimum rate of 80 contralateral turns per 30 minutes (a sign of more than 80-90% dopamine depletion after a 6-OHDA lesion) were used. Two weeks later, the selected rats were tested with invention and reference compounds using an automated rotometer system to record the number and direction of rotations. In order to distinguish spontaneous (non-specific)rotations from induced rotations (specific to the effect of the drug), each rat was used as its own control, employing the following procedure:
The rat was placed in the rotometer system for acclimatation for 15 minutes, the vehicle administered subcutaneously, the rat's rotations recorded for one hour, then test compound was administered s.c. and rotations again recorded for one hour. The number of ipsilateral rotations induced by vehicle was then compared to the number of ipsilateral rotations induced by test compound. Statistical analysis of the data was carried out using Student's t-test (paired).

[2] = test system: ^3 H-Norepinephrine release, rat hippocampus slices; experiment: Ligand-stimulated ^3 H-norepinephrine release from rat hippocampus slices; type: cell-based
Protocol: (§1) Measurement of ^3 H-dopamine release from rat striatal slices was performed according to the method of Sacaan et al. (J. Neurochem. 59:245 (1992)). Male Sprague-Dawley rats (250-300 g) were decapitated and the striata or olfactory tubercles dissected quickly on a cold glass surface. The tissue was chopped to a thickness of 300 μm with a McIlwain tissue chopper. After chopping again at right angles the tissue was dispersed and incubated for 10 min. at 37° C. in oxygenated Kreb's buffer. ^3 H-Dopamine (40 Ci/mmol, NEN- Dupont, Boston, Mass.) was added (50 nM) and the tissue was incubated for 30 min. in Kreb's buffer containing 10 μM pargyline and 0.5 mM ascorbic acid. Aliquots of the minced tissue were then transferred to chambers of a Brandel Superfusion system in which the tissue was supported on Whatman GF/B filter discs. The tissue was then superfused with buffer at a constant flow rate of 0.3 ml/min by means of a Brandel peristaltic pump. The perfusate was collected in plastic scintillation vials in 3-min fractions, and the radioactivity was estimated by scintillation spectrophotometry. The superfusate for the first 120 min was discarded. After two baseline fractions had been collected, the superfusion buffer was switched to fresh buffer with or without compound of interest. At the end of the experiment the filter and the tissue were removed, and the radiolabeled neurotransmitter content was estimated after extraction into scintillation fluid. The fractional efflux of radiolabeled neurotransmitter was estimated as the amount of radioactivity in the perfusate fraction relative to the total amount in the tissue.
(§2) Following essentially the same procedure as set forth above, the amount of ^3 H-norepinephrine released from rat hippocampus, thalamus and prefrontal cortex slices superfused with buffer containing (or lacking) compounds of interest was also measured.
(§3) Results of studies of the effects of an invention compound (as compared to the effect of nicotine) on the release of neurotransmitters from rat brain slices are presented in Table II. Results presented in Part A of the Table are expressed as the percent fractional release and results presented in Part B of the Table are expressed as a percentage, relative to nicotine response.

[3] = test system: ^3 H-Norepinephrine release, rat thalamus slices; experiment: Ligand-stimulated ^3 H-norepinephrine release from rat thalamus slices; type: cell-based; conditions: Nicotine concentration was 100 μM
Protocol: as §1, §2, §3

[4] = test system: ^3 H-Dopamine release, rat striatal slices; experiment: Ligand-stimulated ^3 H-dopamine release from rat striatal slices; type: cell-based
Protocol: as §1, §3

[5] = test system: ^3 H-Norepinephrine release, rat prefrontal cortex slices; experiment: Ligand-stimulated ^3 H-norepinephrine release from rat prefrontal cortex slices; type: cell-based; conditions: in vitro slices, 300 μM
Protocol: as §1, §2, §3

[6] = test system: ^3 H-Dopamine release, rat olfactory tubercles; experiment: Ligand-stimulated ^3 H-dopamine release from rat olfactory tubercles; type: cell-based; conditions: Nicotine concentration was 100 μM
Protocol: as §1, §3

| Structure (SMILES) | change in vivo at 0.5 mg/kg (rats; 2 h, 60-120 min, 0.5 mg/kg salt, read-out: General Activity (beam breaks), percent of change from control) | Percent change from control (ipsilateral rotations) ([1]; 1 mg/kg base, s.c., per one hour interval) | Emax at 300 µM ([2]; Rattus norvegicus, nicotine 300 μM = 100, read-out: % of Nicotine Response, ^3 H-Norepinephrine, Hippocampus) | percent fractional release, ^3 H-Norepinephrine, Hippocampus ([2]; in vitro slices, 300 μM) | percent fractional release, ^3 H-Norepinephrine, Thalamus [3] | change in vivo at 1 mg/kg (rats; 1 h, 0-60 min, read-out: Ambulation (cross overs), percent of change from control) | change in vivo at 1 mg/kg (rats; 1 h, 0-60 min, read-out: General Activity (beam breaks), percent of change from control) | change in vivo at 1 mg/kg (rats; 2 h, 60-120 min, read-out: Ambulation (cross overs), percent of change from control) | change in vivo at 1 mg/kg (rats; 2 h, 60-120 min, read-out: General Activity (beam breaks), percent of change from control) | percent fractional release, ^3 H-Dopamine, Striatum ([4]; Nicotine concentration was 100 μM) | Emax at 10 µM ([4]; Rattus norvegicus, nicotine itself at 10 μM (reference), read-out: % of Nicotine Response, ^3 H-Dopamine, Striatum) | Percent change from control (ipsilateral rotations) ([1]; rat, in vivo) | percent fractional release, ^3 H-Norepinephrine, Prefrontal Cortex [5] | percent fractional release, ^3 H-Dopamine, Olfactory Tubercles [6] |
| --- | --- | --- | --- | --- | --- | --- | --- | --- | --- | --- | --- | --- | --- | --- |
| CC(N)Cc1ccccc1 (centres unmarked) [Amphetamine, amphetamine, reference compound] | 456% | +487% |  |  |  |  |  |  |  |  |  |  |  |  |
| CN1CCCC1c1cccnc1 (centres unmarked) [Nicotine, nicotine, reference compound] |  |  | 100% | 6.19% | 1.83% | 169% | 27% | 163% | 71% | 1.84% | 100% | +357 | 2.32% | 5.61% |
